Assay results as given in patent US9440969B2, “Compounds and methods for kinase modulation, and indications therefor” (PLEXXIKON INC., priority 2009, dated 2016).

Assays:
[1] = target: B-Raf (Homo sapiens, UniProt P15056); assay: B-Raf kinase activity assay (AlphaScreen, biotin-MEK1 substrate); settings: 100 μM ATP, 100 nM biotin-MEK1, 45 minutes at room temperature; read-out: Biochemical activity (IC50 μM) B-Raf
Protocol: (§1) Assays for biochemical and cell based activity are known in the art, for example, as described in PCT publication WO 2007/002433, the disclosure of which is hereby incorporated by reference as it relates to such assays. For example, the biochemical activity IC50 values are determined with respect to inhibition of B-Raf kinase activity, c-Raf-1 kinase activity, or B-Raf V600E kinase activity, where inhibition of phosphorylation of a peptide substrate is measured as a function of compound concentration. Compounds to be tested are diluted in dimethyl sulfoxide to a concentration of 0.1 mM. These are serially diluted 15 μL into 30 μL of dimethyl sulfoxide seven times in 96 well plates for a total of 8 dilution points, and for each dilution point 1 μL is added to a well of an assay plate. Plates are prepared such that each well in a 384 well plate contains 1 μL of compound in 10 μL, volume with 0.1 ng Raf enzyme (i.e. any of B-Raf, c-Raf-1 or B-Raf V600E, Upstate Biotechnology or prepared by methods known to one of skill in the art), 50 mM HEPES, pH 7.0, 50 mM NaCl, 2 mM MgCl2, 1 mM MnCl2, 0.01% Tween-20, 1 mM DTT, and 100 nM biotin-MEK1 as substrate. The reaction is started with addition of 10 μL of 200 μM ATP (i.e. final 100 μM ATP). After incubation of the kinase reaction for 45 minutes at room temperature, 5 μL/well of Stop Solution is added (25 mM Hepes pH 7.5, 100 mM EDTA, 0.01% BSA with donor beads (Streptavidin coated beads, Perkin Elmer), acceptor beads (Protein A coated, Perkin Elmer), and anti phosphor MEK1/2 antibody (CellSignal), each at final concentration 10 μg/mL). The plates are incubated for 3 hours at room temperature and read on Envision reader (Perkin Elmer). Phosphorylation of Mek1 results in binding of the anti-phosphor-MEK1/2 antibody and association of the donor and acceptor beads such that signal correlates with kinase activity. The signal vs. compound concentration is used to determine the IC50.

[2] = Relative solubility by turbidity in aqueous buffers (pH 1.5, 4.5, 6.8, 7.4); format: physicochemical; settings: for turbidity threshold (L, M, H) 1.4: pH 1.5 buffer (SGF); for turbidity threshold (L, M, H) 4.5: pH 4.5 buffer (SIF); for turbidity threshold (L, M, H) 6.8: pH 6.8 buffer (SIF); for turbidity threshold (L, M, H) 7.4: pH 7.4 buffer (HEPES)
Protocol: As an indication of relative solubility, the turbidity of compounds in aqueous solutions is assessed. To assess possible compound properties in different physiological compartments, such as stomach, intestine, and blood, a series of aqueous buffers with varying pH is used. Thus each compound is diluted into four different physiologically relevant buffers and solution turbidity is measured by spectrophotometry.
Compounds are dissolved at a concentration of 25 mM in dimethyl sulfoxide, then serially diluted 1:1 into a 96 well plate, diluting 10 times in pure dimethyl sulfoxide, with the final well of each row a dimethyl sulfoxide blank. In an assay plate, 99 μL of appropriate buffer is added to each well, and 1 μL of each sample dilution is added to the buffer, achieving a range of final total concentrations in aqueous solutions having different pH. The buffers used are Simulated Gastric Fluid (SGF-pH 1.5) 0.5M NaCl, pH 1.5; Simulated Intestinal fluid (SIF-pH 4.5 and pH 6.8) 0.05M NaH2PO4, pH 4.5 and 6.8; and Hepes Buffer (HEPES-pH 7.4) 10 mM HEPES, 150 mM NaCl, pH 7.4. Control compounds pyrene, estriol and propranolol HCl are also assessed. Plates are spun and then mixed for 1 minute, and the absorbance is read using a Tecan Safire II to read wavelengths in the visible range (490, 535, and 650 nm) at four locations per well, reflecting the degree of turbidity present. The average optical density for each wavelength in each well is graphed vs. compound concentration, and the concentration at which the curve crosses a threshold O.D. of 0.01 for each wavelength is reported as the endpoint turbidity assay result. The average of the three wavelengths is used to compare turbidity of compounds. Compounds are considered to have low solubility if the threshold concentration is <31.3 μM, moderate solubility if the threshold concentration is 31.3 μM to 250 μM, and high solubility if the threshold concentration is >250 μM.
The following table indicates the relative solubility (L=low, M=moderate, H=high) based on turbidity threshold concentration at each pH for exemplary compounds according to the invention: […]

[3] = target: B-Raf V600E (Homo sapiens, UniProt P15056, V600E); assay: B-Raf V600E kinase activity assay (AlphaScreen, biotin-MEK1 substrate); settings: 100 μM ATP, 100 nM biotin-MEK1, 45 minutes at room temperature, read-out: Biochemical activity (IC50 μM) V600E
Protocol: as §1

[4] = target: c-Raf-1 (Homo sapiens, UniProt P04049); assay: c-Raf-1 kinase activity assay (AlphaScreen, biotin-MEK1 substrate); settings: 100 μM ATP, 100 nM biotin-MEK1, 45 minutes at room temperature; read-out: Biochemical activity (IC50 μM) c-Raf-1
Protocol: as §1

Sequence of B-Raf (P15056 whole entry): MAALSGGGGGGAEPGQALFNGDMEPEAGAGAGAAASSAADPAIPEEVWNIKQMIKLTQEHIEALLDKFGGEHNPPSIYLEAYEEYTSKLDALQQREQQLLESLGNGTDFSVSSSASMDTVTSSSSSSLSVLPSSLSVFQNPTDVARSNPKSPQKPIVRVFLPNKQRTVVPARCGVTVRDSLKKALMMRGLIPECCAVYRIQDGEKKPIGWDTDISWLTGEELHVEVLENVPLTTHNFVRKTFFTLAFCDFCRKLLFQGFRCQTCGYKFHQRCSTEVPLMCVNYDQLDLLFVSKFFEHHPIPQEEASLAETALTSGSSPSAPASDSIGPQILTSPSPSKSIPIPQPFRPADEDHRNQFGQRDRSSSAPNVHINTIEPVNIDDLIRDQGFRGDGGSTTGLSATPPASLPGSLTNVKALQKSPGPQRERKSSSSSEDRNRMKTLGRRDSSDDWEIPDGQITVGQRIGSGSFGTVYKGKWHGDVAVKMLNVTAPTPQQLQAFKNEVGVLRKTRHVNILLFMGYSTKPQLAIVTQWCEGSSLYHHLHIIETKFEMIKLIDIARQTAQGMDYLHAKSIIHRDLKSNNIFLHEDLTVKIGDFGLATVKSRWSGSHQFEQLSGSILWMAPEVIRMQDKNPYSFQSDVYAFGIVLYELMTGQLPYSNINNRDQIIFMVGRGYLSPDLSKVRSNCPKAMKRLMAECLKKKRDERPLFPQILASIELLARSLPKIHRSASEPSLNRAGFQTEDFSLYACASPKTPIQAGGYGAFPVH
Sequence of c-Raf-1 (P04049 whole entry Y340D/Y341D, form open): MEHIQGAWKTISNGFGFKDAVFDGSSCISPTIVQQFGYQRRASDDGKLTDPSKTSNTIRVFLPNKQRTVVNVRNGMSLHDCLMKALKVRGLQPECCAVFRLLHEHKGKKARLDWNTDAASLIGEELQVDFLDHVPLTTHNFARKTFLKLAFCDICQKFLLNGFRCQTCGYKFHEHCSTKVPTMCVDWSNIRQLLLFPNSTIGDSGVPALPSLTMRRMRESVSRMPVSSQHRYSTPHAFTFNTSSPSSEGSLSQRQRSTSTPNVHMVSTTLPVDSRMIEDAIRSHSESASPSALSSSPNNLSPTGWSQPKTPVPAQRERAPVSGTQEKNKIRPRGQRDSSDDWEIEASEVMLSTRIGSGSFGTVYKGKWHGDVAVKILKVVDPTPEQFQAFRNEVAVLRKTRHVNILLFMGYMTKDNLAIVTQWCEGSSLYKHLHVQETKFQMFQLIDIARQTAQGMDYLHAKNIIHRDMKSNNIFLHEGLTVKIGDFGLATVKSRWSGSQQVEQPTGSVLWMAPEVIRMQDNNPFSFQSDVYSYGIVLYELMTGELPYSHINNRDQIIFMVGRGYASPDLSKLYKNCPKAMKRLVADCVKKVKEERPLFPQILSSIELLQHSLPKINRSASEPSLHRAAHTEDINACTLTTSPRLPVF
Sequence of B-Raf V600E (P15056 whole entry V600E): as the sequence (P15056 whole entry) above, with V600E counted along it

Row | IC50 [1] [µM] | IC50 [3] [µM] | IC50 [4] [µM] | SMILES | turbidity threshold (L, M, H) 1.4 [2] | turbidity threshold (L, M, H) 4.5 [2] | turbidity threshold (L, M, H) 6.8 [2] | turbidity threshold (L, M, H) 7.4 [2]
1 | < 0.1 | < 0.1 | < 0.1 | Cc1cc(-c2cnc3[nH]cc(C(=O)c4c(F)ccc(NS(=O)(=O)c5cc(F)ccc5F)c4F)c3c2)n(C)n1 [P-1010, N-{3-[5-(2,5-Dimethyl-2H-pyrazol-3-yl)-1H-pyrrolo[2,3-b]pyridine-3-carbonyl]-2,4-difluoro-phenyl}-2,5-difluoro-benzenesulfonamide] | M (moderate solubility if the threshold concentration is 31.3 μM to 250 μM) | L (low solubility if the threshold concentration is <31.3 μM) | L (low solubility if the threshold concentration is <31.3 μM) | M (moderate solubility if the threshold concentration is 31.3 μM to 250 μM)
2 | < 0.1 | < 0.1 | < 0.1 | Cn1ccc(-c2cnc3[nH]cc(C(=O)c4c(F)ccc(NS(=O)(=O)c5cc(F)ccc5F)c4F)c3c2)n1 [P-1011, N-{2,4-Difluoro-3-[5-(1-methyl-1H-pyrazol-3-yl)-1H-pyrrolo[2,3-b]pyridine-3-carbonyl]-phenyl}-2,5-difluoro-benzenesulfonamide] | L (low solubility if the threshold concentration is <31.3 μM) | L (low solubility if the threshold concentration is <31.3 μM) | M (moderate solubility if the threshold concentration is 31.3 μM to 250 μM) | M (moderate solubility if the threshold concentration is 31.3 μM to 250 μM)
3 | < 0.1 | < 0.1 | < 0.1 | COc1ccc(-c2cnc3[nH]cc(C(=O)c4c(F)ccc(NS(=O)(=O)c5cc(F)ccc5F)c4F)c3c2)c(OC)n1 [P-1406, N-{3-[5-(2,6-Dimethoxy-pyridin-3-yl)-1H-pyrrolo[2,3-b]pyridine-3-carbonyl]-2,4-difluoro-phenyl}-2,5-difluoro-benzenesulfonamide] | L (low solubility if the threshold concentration is <31.3 μM) | L (low solubility if the threshold concentration is <31.3 μM) | L (low solubility if the threshold concentration is <31.3 μM) | L (low solubility if the threshold concentration is <31.3 μM)
4 | < 0.1 | < 0.1 | < 0.1 | CN(C)c1ccc(-c2cnc3[nH]cc(C(=O)c4c(F)ccc(NS(=O)(=O)c5cc(F)ccc5F)c4F)c3c2)cn1 [P-1409, N-{3-[5-(6-Dimethylamino-pyridin-3-yl)-1H-pyrrolo[2,3-b]pyridine-3-carbonyl]-2,4-difluoro-phenyl}-2,5-difluoro-benzenesulfonamide] | L (low solubility if the threshold concentration is <31.3 μM) | L (low solubility if the threshold concentration is <31.3 μM) | L (low solubility if the threshold concentration is <31.3 μM) | L (low solubility if the threshold concentration is <31.3 μM)
5 | < 0.1 | < 0.1 | < 0.1 | COc1ncc(-c2cnc3[nH]cc(C(=O)c4c(F)ccc(NS(=O)(=O)c5cc(F)ccc5F)c4F)c3c2)c(OC)n1 [P-1501, N-{3-[5-(2,4-Dimethoxy-pyrimidin-5-yl)-1H-pyrrolo[2,3-b]pyridine-3-carbonyl]-2,4-difluoro-phenyl}-2,5-difluoro-benzenesulfonamide] | L (low solubility if the threshold concentration is <31.3 μM) | L (low solubility if the threshold concentration is <31.3 μM) | L (low solubility if the threshold concentration is <31.3 μM) | L (low solubility if the threshold concentration is <31.3 μM)
